From patent publication US20130203715A1, “USE OF TRP CHANNEL AGONISTS TO TREAT INFECTIONS” (Pulmatrix, Inc., priority 2010, published 2013)
Read-outs that look alike come from different tables or passages of the source.

Legend:
[1] = system: Influenza A/Panama/2007/99; type: cell-based; conditions: for Effect of TRP channel antagonist on 8×Ca:Na formulation-mediated reduction of influenza infection: Calu-3 cells pretreated with antagonist (RR 1 μM, SKF96365 10 μM, RN1734 1-100 μM), then 8×Ca:Na formulation
rhinovirus (RV16) = type: cell-based, human rhinovirus
parainfluenza (hPIV3) = type: cell-based, human parainfluenza virus
[2] = system: Influenza A/Panama/2007/99; assay: Influenza infection of normal human bronchial epithelial (NHBE) cells, viral titer by TCID50; type: cell-based, Influenza A (H3N2); conditions: for Effect of TRPV4 agonist on influenza replication in NHBE cells: agonist 1 μM one hour prior to infection and reapplied 3 h after, compared to PBS control
[3] = Calu-3 cells pretreated with ruthenium red 1 μM, then 8×Ca:Na formulation
[4] = Calu-3 cells, treatment alone, compared to untreated control
[5] = reduction of influenza infection, TCID50 24 h after infection
[6] = reduction of influenza infection, agonist applied apically 1 h before and again 3 h after infection, titer 24 h after infection

Compound: N.N.N.N.N.N.N.N.N.N.N.N.N.N.[Cl-].[Cl-].[Cl-].[Cl-].[Cl-].[Cl-].[O-2].[O-2].[Ru+3].[Ru+3].[Ru+4] [Ruthenium Red]
- Effect of antagonist on Formulation I reduction of influenza viral titer ([1]; Calu-3 cells pre-treated with ruthenium red 1 μM, then dry powder Formulation I): attenuated
- Effect of antagonist on Formulation II reduction of influenza infection ([1]; Calu-3 cells pre-treated with ruthenium red 1 μM, then dry powder Formulation II): attenuated
- Effect of TRP channel antagonist on 8×Ca:Na formulation-mediated reduction of influenza infection [1]: the effect on viral infection was reduced to levels comparable to the untreated control cells
- Effect of antagonist on 8×Ca:Na formulation efficacy against rhinovirus (rhinovirus (RV16); [3]): the efficacy of the 8× treatment was reduced
- Effect of antagonist on 8×Ca:Na formulation efficacy against parainfluenza (parainfluenza (hPIV3); [3]): the efficacy of the 8× treatment was reduced
- Effect of antagonist on 8×Ca:Na formulation anti-viral action in NHBE cells ([2]; ruthenium red 1 μM before 8×Ca:Na formulation): blocked the anti-viral action of the Ca:Na formulation

Compound: C=C(C)[C@]12C[C@@H](C)[C@@]34O[C@](Cc5ccccc5)(O[C@@H]1[C@@H]3C=C(COC(=O)Cc1ccc(O)c(OC)c1)C[C@]1(O)C(=O)C(C)=C[C@@H]41)O2 [Resiniferatoxin]
- Active concentrations [1]: -6 to -4 M
- Max reduction in titer (Log10) [1]: 3.3 Log10

Compound: CC(C)NCCN(C(C)C)S(=O)(=O)c1ccc(Cl)cc1Cl [RN1734]
- Effect of TRP channel antagonist on 8×Ca:Na formulation-mediated reduction of influenza infection [1]: inhibited the 8×Ca:Na formulation-mediated reduction of influenza infection in a dose dependent manner

Compound: O=C1NC(c2cccc([N+](=O)[O-])c2)=CCN1c1ccccc1O [Icilin]
- Effect on influenza infection (viral titer) of Calu-3 cells [1, 4]: small, but measurable reduction of influenza titer
- Max reduction in titer (Log10) [1, 5]: 1 Log10
- Active concentrations [1, 6]: -6 to -4 M

Compound: CCCCCCCCCC(=O)O[C@@H]1[C@@H](C)[C@@]2(O)[C@@H](C=C(CO)C[C@@]3(O)C(=O)C(C)=C[C@@H]23)[C@@H]2C(C)(C)[C@]12OC(=O)CCCCCCCCC [4αPDD, 4α-Phorbol 12,13-didecanoate]
- Active concentrations [1]: -9 to -5 M
- Effect on influenza infection (viral titer) of Calu-3 cells [1]: reduces influenza infection
- Max reduction in titer (Log10) [1]: 2.9 Log10
- Effect on rhinovirus infection of Calu-3 cells (rhinovirus (RV16); Calu-3 cells, RV16, compared to untreated control): able to reduce
- Effect on parainfluenza infection of Calu-3 cells (parainfluenza (hPIV3); Calu-3 cells, hPIV3, compared to untreated control): able to reduce
- Effect of TRPV4 agonist on influenza replication in NHBE cells [2]: reduced influenza replication

Compound: COc1ccc(CCCOC(Cn2ccnc2)c2ccc(OC)cc2)cc1 (centres unmarked) [SKF96365]
- Effect of TRP channel antagonist on 8×Ca:Na formulation-mediated reduction of influenza infection [1]: the effect on viral infection was reduced to levels comparable to the untreated control cells

Compound: CC(C)C[C@H](NC(=O)c1cc2ccccc2s1)C(=O)N1CCN(C(=O)[C@H](CO)NS(=O)(=O)c2ccc(Cl)cc2Cl)CC1 [GSK1016790A]
- Active concentrations [1]: -11 to -6 M
- Max reduction in titer (Log10) [1]: 5.0 Log10
- Effect on influenza infection (viral titer) of Calu-3 cells [1, 4]: reduces influenza infection in a dose-dependent manner
- Effect on influenza infection (viral titer) of Calu-3 cells ([1]; Calu-3 cells, treatment alone, compared to untreated control, listed as GSK10168790): the highest level of anti-viral efficacy in a dose-dependent manner
- Effect of TRPV4 agonist on influenza replication in NHBE cells [2]: reduced influenza replication

Compound: O=[N+]([O-])c1cc(Cl)ccc1S(=O)(=O)N1CCN(Cc2ccccc2)CC1 [RN1747]
- Active concentrations [1]: -8 to -4 M
- Max reduction in titer (Log10) [1]: 2.3 Log10
- Effect on influenza infection (viral titer) of Calu-3 cells [1, 4]: reduces influenza infection in a dose-dependent manner

Compound: O=C(O)c1ccccc1Nc1cccc(C(F)(F)F)c1 [Flufenamic acid]
- Effect on influenza infection (viral titer) of Calu-3 cells [1, 4]: reduced influenza titer in a dose responsive manner
- Max reduction in titer (Log10) [1, 5]: 2.5 Log10
- Active concentrations [1, 6]: -6 to -4 M

Compound: Cc1ccc(C(C)C)cc1O [Carvacrol]
- Active concentrations [1]: −6.5 to −4M^
- Max reduction in titer (Log10) [1]: 3 Log10
- Effect on influenza infection (viral titer) of Calu-3 cells [1, 4]: reduced influenza titer in a dose responsive manner

Compound: CC1CCC(C(C)C)C(O)C1 (centres unmarked) [Menthol]
- Effect on influenza infection (viral titer) of Calu-3 cells [1, 4]: reduced influenza titer in a dose responsive manner
- Max reduction in titer (Log10) [1, 5]: 2.5 Log10
- Active concentrations [1, 6]: -7 to -4 M

Compound: COc1cc(CNC(=O)CCCC/C=C/C(C)C)ccc1O [Capsacin]
- Active concentrations [1]: -8 to -4 M
- Max reduction in titer (Log10) [1]: 2.2 Log10
